This is an account of results in ChEMBL document CHEMBL1201862, “PubChem BioAssay data set” (2004).

Some test systems named below: BT-549; CCRF-CEM; HCC 2998; HCT-15; HOP-62; HOP-92; MCF7; Malme-3M; NCI-H460; OVCAR-3; OVCAR-5; PC-3; SK-MEL-2; SK-MEL-5; SK-OV-3; UACC-62; UO-31; NCI/ADR-RES; SF-539; SNB-75.
Common to all, as to assay: NCI anticancer screen, dose series, 48 h

Several values for one entry are separate records, joined by “and”; a condition that tells them apart may be missing. Identical values can stand only once.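 Dose response: 5 concentrations. Exposure: 48 h. Format: 96-well plates. Endpoint: linear interpolation; highest concentration if not reached. The concentration for 50% growth inhibition is given as GI50.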 Activity calls are given as the source filed them. No stated cut-off is given here; in the data, active = GI50 up to about 1.1 µM and inactive = higher. Some results are limits rather than exact numbers.

With `CC(C)=CCC/C(C)=C/CCC1(C)C2COC(=O)C21` (centres undefined), the GI50 in the assay on BT-549 is 49.8 µM (inactive); in the assay with CCRF-CEM, 26.9 µM (inactive); with HCC 2998 it was > 100 µM (inactive); in the assay with HCT-15, 57.4 µM; in the assay with HOP-62 it was > 100 µM (inactive); with HOP-92, 18.2 µM (inactive). The GI50 was 34.8 µM (inactive) in the assay with MCF7; > 100 µM (inactive) in the assay with Malme-3M; 36.2 µM (inactive) in the assay with NCI-H460; 37 µM (inactive) in the assay with OVCAR-3; > 100 µM (inactive) in the assay with OVCAR-5; 44.4 µM (inactive) with PC-3. For the same compound, the GI50 was 70.5 µM (inactive) with SK-MEL-2; 20.7 µM (inactive) in the assay with SK-MEL-5; > 100 µM (inactive) with SK-OV-3; > 100 µM (inactive) in the assay on UACC-62; 43.3 µM (inactive) in the assay on UO-31.

Consider `Nc1ncnc2c1ncn2C1CC(O)C(CO)O1` (centres undefined), for which the GI50 with CCRF-CEM was > 100 µM (inactive) and 70.5 µM (inactive); in the assay on HCC 2998 it was > 100 µM (inactive); in the assay with HCT-15, over 100 µM; with HOP-62 it was > 100 µM (inactive); in the assay with HOP-92 it was > 100 µM (inactive); in the assay on MCF7, > 100 µM (inactive). The GI50 in the assay with Malme-3M, with NCI-H460, with NCI/ADR-RES, in the assay with OVCAR-3, in the assay with OVCAR-5 and in the assay with PC-3 was > 100 µM (inactive) in each case. Besides, the GI50 with SF-539, with SK-MEL-2, with SK-MEL-5, in the assay with SK-OV-3, with SNB-75 and in the assay on UACC-62 was > 100 µM (inactive) throughout. For the same compound, the GI50 in the assay with UO-31 is > 100 µM (inactive).

`Cc1ccc(S(=O)(=O)Nn2c(-c3ccccc3)c(C#N)c(-c3ccc(Cl)cc3)c(C#N)c2=O)cc1`: the GI50 in the assay with BT-549 was 18.5 µM (inactive); in the assay with CCRF-CEM it was 20.4 µM (inactive); in the assay on HCC 2998, 23.7 µM (inactive); in the assay with HCT-15, 26.9 µM; with HOP-62, 30.1 µM (inactive); in the assay with HOP-92 it was 19.5 µM (inactive). In addition, the GI50 in the assay with MCF7 is 19.4 µM (inactive); with NCI-H460 it was 27.9 µM (inactive); in the assay with OVCAR-5, 47 µM (inactive); in the assay with PC-3, 26.2 µM (inactive); in the assay on SF-539, 21.1 µM (inactive); in the assay with SK-MEL-2 it was 20.2 µM (inactive). Also, the GI50 with SK-MEL-5 was 15.2 µM (inactive); in the assay with SK-OV-3 it was 35.4 µM (inactive); with UACC-62 it was 16.1 µM (inactive).

Take `NC(Cc1ccccc1)C(=O)OCN1C(=O)C2C3C=CC(C2C1=O)C1C(=O)N(COC(=O)C(N)Cc2ccccc2)C(=O)C31` (centres undefined): the GI50 was > 100 µM (inactive) in the assay on BT-549; 21.7 µM (inactive) in the assay with CCRF-CEM; > 100 µM (inactive) in the assay with HCC 2998; 27.4 µM in the assay with HCT-15; > 100 µM (inactive) in the assay on HOP-62; 17.5 µM (inactive) in the assay with MCF7. The GI50 in the assay on Malme-3M was 17.2 µM (inactive); in the assay on NCI-H460, 67.9 µM (inactive); in the assay with NCI/ADR-RES, > 100 µM (inactive); in the assay on OVCAR-3 it was > 100 µM (inactive); in the assay with OVCAR-5, > 100 µM (inactive); in the assay with PC-3, > 100 µM (inactive). For the same compound, the GI50 is > 100 µM (inactive) in the assay on SF-539; 22.6 µM (inactive) in the assay with SK-MEL-2; 49.8 µM (inactive) in the assay on SK-MEL-5; 38.8 µM (inactive) with UACC-62; > 100 µM (inactive) in the assay with UO-31.

For `COc1ccc(OC2OC(CO)C(O)C(O)C2O)cc1` (centres undefined), the GI50 with BT-549 is > 100 µM (inactive); with CCRF-CEM, > 100 µM (inactive); in the assay with HCC 2998 it was > 100 µM (inactive); with HCT-15, over 100 µM; with HOP-62, > 100 µM (inactive); with MCF7, > 100 µM (inactive). For the same compound, the GI50 in the assay with Malme-3M, with NCI-H460, in the assay on NCI/ADR-RES, in the assay on OVCAR-3, in the assay on OVCAR-5 and in the assay with PC-3 was > 100 µM (inactive) throughout. Besides, the GI50 with SF-539, with SK-MEL-2, in the assay with SK-MEL-5, in the assay with SK-OV-3, in the assay on SNB-75 and with UACC-62 was > 100 µM (inactive) each time. Also, the GI50 with UO-31 is > 100 µM (inactive).

Regarding `COc1c(O)c(OC)c(C(=O)/C=C/c2ccccc2)c(O)c1OC` [PEDICIN], the GI50 is 94.6 µM (inactive) in the assay with CCRF-CEM; 68.1 µM (inactive) in the assay with HCC 2998; 28.8 µM with HCT-15; 21.2 µM (inactive) in the assay with HOP-92; 26.9 µM (inactive) with MCF7; 22.8 µM (inactive) with Malme-3M. The GI50 in the assay on NCI-H460 is 19.1 µM (inactive); with NCI/ADR-RES it was 18.2 µM (inactive); in the assay on OVCAR-3 it was 22.2 µM (inactive); in the assay with OVCAR-5 it was 58.9 µM (inactive); with PC-3, 41.6 µM (inactive); in the assay on SF-539 it was 30.5 µM (inactive). For the same compound, the GI50 was 24.9 µM (inactive) with SK-MEL-2, 20.4 µM (inactive) with SK-MEL-5, > 100 µM (inactive) with SK-OV-3 and 30.3 µM (inactive) with SNB-75.

For `COC(=O)N/N=C(\c1ccccc1)c1ccc(OC)cc1`, the GI50 in the assay on BT-549 is > 100 µM (inactive); in the assay with CCRF-CEM, > 100 µM (inactive); in the assay with HCC 2998 it was > 100 µM (inactive); with HCT-15, over 100 µM; in the assay on MCF7 it was > 100 µM (inactive); in the assay on Malme-3M, > 100 µM (inactive). The GI50 in the assay on NCI-H460, in the assay on NCI/ADR-RES, in the assay with OVCAR-3, with OVCAR-5, in the assay with PC-3 and in the assay on SF-539 was > 100 µM (inactive) throughout. The GI50 is > 100 µM (inactive) in the assay with SK-MEL-2; > 100 µM (inactive) in the assay on SK-MEL-5; > 100 µM (inactive) with SK-OV-3; 78.7 µM (inactive) in the assay with SNB-75; > 100 µM (inactive) in the assay with UACC-62; 35.1 µM (inactive) in the assay on UO-31.

In the case of `COc1cccc(/C=N/n2c(C)n[nH]c2=O)c1`, the GI50 in the assay on BT-549 was 92.9 µM (inactive); with CCRF-CEM, > 100 µM (inactive); with HCC 2998, > 100 µM (inactive); in the assay on HCT-15, over 100 µM; in the assay on HOP-62 it was 80.7 µM (inactive); in the assay with MCF7, > 100 µM (inactive). Further, the GI50 is > 100 µM (inactive) with Malme-3M; > 100 µM (inactive) in the assay with NCI-H460; > 100 µM (inactive) in the assay with NCI/ADR-RES; 25.9 µM (inactive) in the assay on OVCAR-3; > 100 µM (inactive) with OVCAR-5; > 100 µM (inactive) in the assay on PC-3. Besides, the GI50 with SF-539 is > 100 µM (inactive); with SK-MEL-2, > 100 µM (inactive); in the assay with SK-OV-3, > 100 µM (inactive); in the assay with SNB-75 it was 58.7 µM (inactive); with UACC-62 it was 69.3 µM (inactive); in the assay on UO-31 it was > 100 µM (inactive).

`CC1(C)[N+]([O-])=[N+]([O-])C1(C)O` (centres undefined): the GI50 in the assay with BT-549 is > 100 µM (inactive); with CCRF-CEM it was > 100 µM (inactive); in the assay on HCC 2998, > 100 µM (inactive); in the assay on HCT-15, over 100 µM; in the assay with MCF7 it was > 100 µM (inactive); in the assay with Malme-3M it was > 100 µM (inactive). Also, the GI50 in the assay with NCI-H460, in the assay on NCI/ADR-RES, in the assay on OVCAR-3, in the assay with OVCAR-5, in the assay with PC-3 and in the assay with SF-539 was > 100 µM (inactive) each time. The GI50 in the assay with SK-MEL-2, in the assay with SK-MEL-5, with SK-OV-3, in the assay with SNB-75, in the assay on UACC-62 and in the assay on UO-31 was > 100 µM (inactive) throughout.

Turning to `CC1CC(=O)Nc2ccc(/N=N/N(C)C)cc2N1C=O` (centres undefined), the GI50 with BT-549 was > 100 µM (inactive); in the assay with CCRF-CEM, > 100 µM (inactive); in the assay with HCC 2998, > 100 µM (inactive); with HCT-15, over 100 µM; in the assay with HOP-62, > 100 µM (inactive); in the assay on MCF7 it was > 100 µM (inactive). The GI50 with Malme-3M, with NCI-H460, with NCI/ADR-RES, in the assay with OVCAR-3, with OVCAR-5 and in the assay on PC-3 was > 100 µM (inactive) throughout. Moreover, the GI50 in the assay with SK-MEL-2, with SK-MEL-5, in the assay with SK-OV-3, in the assay with SNB-75, in the assay with UACC-62 and in the assay on UO-31 was > 100 µM (inactive) in each case.

Take `C/C(=N\N=C(\N)OB(F)F)c1ccccn1`: the GI50 with BT-549 is > 100 µM (inactive); with CCRF-CEM, 43.4 µM (inactive); with HCC 2998 it was > 100 µM (inactive); in the assay on HCT-15 it was 93.8 µM; with HOP-62, 37.5 µM (inactive); in the assay on HOP-92, 12.7 µM (inactive). Besides, the GI50 in the assay with MCF7 is 79.4 µM (inactive); in the assay with Malme-3M, > 100 µM (inactive); in the assay with NCI-H460 it was 40.8 µM (inactive); with NCI/ADR-RES it was > 100 µM (inactive); in the assay with OVCAR-3, 92 µM (inactive); in the assay on OVCAR-5, > 100 µM (inactive). In addition, the GI50 in the assay with SF-539 was > 100 µM (inactive); in the assay on SK-MEL-2, > 100 µM (inactive); in the assay with SK-MEL-5 it was > 100 µM (inactive); with SK-OV-3, > 10 µM (inactive); with SNB-75, 7.23 µM (inactive); in the assay with UACC-62 it was 82.2 µM (inactive). Moreover, the GI50 in the assay with UO-31 was 71.4 µM (inactive).
